Source: ChEMBL document CHEMBL2029330 (Bioorg Med Chem Lett, 2012)
Converted amounts (≈) assume the structure as drawn. Blank lines part the entries; values can stand above or below the molecule they belong to.

Legend:
[1] = Aqueous solubility of the compound at pH 7.4; format: physicochemical; settings: aqueous medium
in vitro = settings: human, hepatocytes
[2] = Volume of distribution at steady state in rat; format: ADME, organism-based; settings: in vivo, read-out: Vdss
[3] = Oral bioavailability in rat; format: ADME, organism-based; settings: in vivo
[4] = Volume of distribution at steady state in dog; format: ADME, organism-based, Canis lupus familiaris; settings: in vivo, read-out: Vdss
[5] = Oral bioavailability in dog; format: ADME, organism-based, Canis lupus familiaris; settings: in vivo
[6] = Clearance in rat; format: ADME, organism-based; settings: in vivo
[7] = Half life in rat; format: ADME, organism-based; settings: in vivo
[8] = Clearance in dog; format: ADME, organism-based, Canis lupus familiaris; settings: in vivo
[9] = Half life in dog; format: ADME, organism-based, Canis lupus familiaris; settings: in vivo
[10] = Lipophilicity, log D of the compound at pH 7.4; format: physicochemical; settings: buffer
[11] = Dissociation constant, pKa of the compound; format: physicochemical
[12] = Apparent permeability of the compound from apical to basolateral side across human Caco2 cells at 10 uM; format: ADME, cell-based; settings: Caco-2
[13] = Apparent permeability of the compound from basolateral to apical side across human Caco2 cells at 10 uM; format: ADME, cell-based; settings: Caco-2

SMILES: Cc1ccc(NC(=O)c2ccnc(N3CCOCC3)c2)cc1-n1cnc2ccc(N3CCN(C)CC3)cc2c1=O
solubility [1]: 300 µM (≈ 162 µg/mL)
hepatocyte CLint (in vitro): 17 µL/min/1e6 cells

SMILES: Cc1ccc(NC(=O)c2ccnc(N3CCOCC3)c2)cc1-n1c(C)nc2ccc(N3CCN(C)CC3)cc2c1=O
solubility [1]: 300 µM (≈ 166 µg/mL)

SMILES: Cc1ccc(NC(=O)c2cccc(N3CCOCC3)c2)cc1-n1cnc2ccc(N3CCN(C)CC3)cc2c1=O
solubility [1]: 300 µM (≈ 162 µg/mL)

SMILES: Cc1ccc(NC(=O)c2ccccc2)cc1-n1cnc2ccc(N3CCN(C)CC3)cc2c1=O
hepatocyte CLint (in vitro): 6 µL/min/1e6 cells

SMILES: COc1ccccc1C(=O)Nc1ccc(C)c(-n2cnc3ccc(N4CCN(C)CC4)cc3c2=O)c1
hepatocyte CLint (in vitro): 5 µL/min/1e6 cells

SMILES: Cc1ccc(NC(=O)c2cccc(C#N)c2)cc1-n1cnc2ccc(N3CCN(C)CC3)cc2c1=O
hepatocyte CLint (in vitro): < 3 µL/min/1e6 cells

SMILES: Cc1ccc(NC(=O)c2ccc(C#N)cc2)cc1-n1cnc2ccc(N3CCN(C)CC3)cc2c1=O
Vd [2]: 4.8 L/kg
bioavailability [3]: 29%
Vd [4]: 7.8 L/kg
bioavailability [5]: 53%

SMILES: Cc1ccc(NC(=O)c2ccccc2F)cc1-n1cnc2ccc(N3CCN(C)CC3)cc2c1=O
hepatocyte CLint (in vitro): 7 µL/min/1e6 cells

The remaining lines, values ahead:

hepatocyte CLint (in vitro): 11 µL/min/1e6 cells
SMILES: Cc1ccc(NC(=O)c2cccc(F)c2)cc1-n1cnc2ccc(N3CCN(C)CC3)cc2c1=O

hepatocyte CLint (in vitro): 5 µL/min/1e6 cells
SMILES: Cc1ccc(NC(=O)c2ccno2)cc1-n1cnc2ccc(N3CCN(C)CC3)cc2c1=O

hepatocyte CLint (in vitro): 7 µL/min/1e6 cells
SMILES: Cc1ccc(NC(=O)c2cscn2)cc1-n1cnc2ccc(N3CCN(C)CC3)cc2c1=O

hepatocyte CLint (in vitro): < 3 µL/min/1e6 cells
SMILES: Cc1ccc(NC(=O)c2cncs2)cc1-n1cnc2ccc(N3CCN(C)CC3)cc2c1=O

clearance [6]: 17 mL/min/kg
half-life [7]: 1.7 h
Vd [2]: 2.5 L/kg
bioavailability [3]: 41%
clearance [8]: 19 mL/min/kg
Vd [4]: 3.7 L/kg
half-life [9]: 4 h
bioavailability [5]: 20%
SMILES: Cc1ccc(C(=O)Nc2ccon2)cc1-n1cnc2ccc(N3CCN(C)CC3)cc2c1=O

clearance [6]: 26 mL/min/kg
Vd [2]: 1.9 L/kg
bioavailability [3]: 49%
clearance [8]: 24 mL/min/kg
Vd [4]: 3.3 L/kg
half-life [9]: 1.7 h
bioavailability [5]: 68%
logD [10]: 1.6
pKa [11]: 7.6
Papp A→B at 10 µM [12]: 6 ×10⁻⁶ cm/s
Papp B→A at 10 µM [13]: 11 ×10⁻⁶ cm/s
hepatocyte CLint (in vitro): 2 µL/min/1e6 cells
SMILES: Cc1ccc(C(=O)NC2CC2)cc1-n1cnc2ccc(N3CCN(C)CC3)cc2c1=O [AZD-6703]
